Data on one compound can be found in patent US20240238310A1, “MODULATION OF SEX STEROID HORMONE PRODUCTION AND ACTIVITY FOR TREATING AND PREVENTING HERNIAS” (Northwestern University, priority 2020, published 2024).

This assay has as its target T1, ERα (Mus musculus, UniProt P19785).
T1 construct: ERα in LAMT is almost exclusively expressed in fibroblasts; endogenous in cells; host or cells: primary LAMT fibrosis-associated fibroblasts (passage 0) from 4-week-old Arom^hum (FVB/N background) male mice
T1 sequence (P19785 1-599): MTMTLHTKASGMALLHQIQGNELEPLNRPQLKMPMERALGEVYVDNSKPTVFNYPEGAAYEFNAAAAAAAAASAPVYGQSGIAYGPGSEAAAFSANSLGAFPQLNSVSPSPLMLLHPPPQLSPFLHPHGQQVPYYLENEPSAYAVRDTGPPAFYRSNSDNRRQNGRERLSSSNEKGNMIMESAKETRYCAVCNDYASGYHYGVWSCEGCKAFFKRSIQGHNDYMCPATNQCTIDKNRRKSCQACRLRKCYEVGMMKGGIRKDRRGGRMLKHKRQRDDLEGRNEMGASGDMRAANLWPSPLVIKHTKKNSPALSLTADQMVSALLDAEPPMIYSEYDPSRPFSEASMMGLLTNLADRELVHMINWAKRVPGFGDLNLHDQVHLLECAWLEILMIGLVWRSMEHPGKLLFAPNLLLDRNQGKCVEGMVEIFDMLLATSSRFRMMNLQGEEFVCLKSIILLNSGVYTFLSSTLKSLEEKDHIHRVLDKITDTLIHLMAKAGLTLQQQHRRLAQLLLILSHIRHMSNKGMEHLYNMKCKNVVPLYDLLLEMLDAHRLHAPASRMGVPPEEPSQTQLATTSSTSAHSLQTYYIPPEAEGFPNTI
Put plainly: ERα ChIP-seq, histone ChIP-seq and RNA-seq in LAMT FAFs treated with E2 or fulvestrant (planned). It is filed as cell-based. Particulars: expected result (Aim 1); fulvestrant 10^−7 M, 24 h. From the text: Early herniation in Arom^hum mice usually become visible around 4 weeks of age (FIG. 5). Thus, we will isolate LAMT transformed FAFs at 4 weeks of age. We routinely culture primary fibroblast cells from LAMT of both WT and Arom^hum mice (FIGS. 6-9). The quantity of FAFs (>10^7 cells/Arom^hum mouse) is sufficient for performing the proposed experiments. Previously, we successfully used two antibodies for ERα ChIP-seq or other genome-wide ChIP approaches^84, 85. We will perform optimization studies (ChIP-western and conventional ChIP) with both antibodies in primary muscle fibroblasts and use the most suitable antibody for ChIP-seq^84. […] Library quality will be assessed using the Agilent 2100 Bioanalyzer. Sequencing will be performed at the Next-Generation Sequencing Core at Northwestern to obtain 30 million single-end 75-bp reads per sample. […]
Experiment 1b2: We will perform RNA-seq at 40 million reads per sample on the 12 LAMT FAF samples treated for 24 h with vehicle, E2 (10^−8M), or fulvestrant (10^-7 M) (n=4 mice/group). […] The RNA-seq data will be evaluated using pathway analysis and gene enrichment strategies with respect to the differentially expressed (DE) transcripts/genes induced by E2 and reversed by fulvestrant.
Bioinformatics analysis for ChIP-seq, RNA-seq, and their integration. […] The differential binding (DB) sites will be detected using csaw^89. […]

With `C[C@]12CC[C@@H]3c4ccc(O)cc4C[C@@H](CCCCCCCCC[S+]([O-])CCCC(F)(F)C(F)(F)F)[C@H]3[C@@H]1CC[C@@H]2O` (stereo partly shown) [fulvestrant], the “E2-induced ERα binding, histone modification and gene expression profiles in LAMT FAFs” value is “will block or partially reverse E2-induced ERα binding and histone modification, and alter gene expression profiles”.
